Where two headings read alike, the source gives them in different places. Some results are limits rather than exact numbers.

In assay [1] the test system is HCV genotype 1a (H77 strain) replicon in HUH-7 cells. Briefly: HCV replicon luciferase reporter assay, genotype 1a. It is filed as cell-based. The settings on record: Hepatitis C virus, Huh-7, 72 h, HCV genotype 1a replicon luciferase, 3 days incubation, read-out: LE_1a (EC50, range). The procedure, abridged:
(§1)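 Replicon inhibition for both genotypes was measured as Renilla luciferase signal (EnduRen, 7.5 μM final, 2 h) after 3-day, 37° C exposure of replicon-bearing HUH-7 cells in 4% FCS DMEM, 0.5% DMSO. The 1b construct carries S1179I; the 1a H77 construct carries P1496L and S2204I. Twenty-point, 3-fold dilutions were fitted four-parametrically for EC50, and CC50 was taken from multiplexed Cell Titer-Blue.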
(In general: A replicon is a self-replicating genome or part of one, used to study replication in cells.)

In assay [2] the test system is HCV genotype 1b (Con1) replicon in HUH-7 cells. Briefly: HCV replicon luciferase reporter assay, genotype 1b. It is filed as cell-based. The settings on record: Hepatitis C virus, Huh-7, 72 h, HCV genotype 1b replicon luciferase, 3 days incubation, read-out: LE_1b (EC50, range). The procedure, abridged: as §1

The EC50 is the midpoint of the concentration-response curve. Take `CC[C@@H]1C[C@H](C)CC/C=C\[C@@H]2C[C@@]2(C(=O)NS(=O)(=O)C2CC2)NC(=O)[C@@H]2C[C@@H](Oc3nccc4cc(OC)c(F)cc34)CN2C(=O)[C@H]1NC(=O)OC(C)(C)C(F)(F)F` [Compound 4004, 1,1,1-trifluoro-2-methylpropan-2-yl (2R,6S,7R,9R,13aS,14aR,16aS,Z)-14a-(cyclopropylsulfonylcarbamoyl)-7-ethyl-2-(7-fluoro-6-methoxyisoquinolin-1-yloxy)-9-methyl-5,16-dioxo-1,2,3,5,6,7,8,9,10,11,13a,14,14a,15,16,16a-hexadecahydrocyclopropa[e]pyrrolo[1,2-a][1,4]diazacyclopentadecin-6-ylcarbamate]: the EC50 in assay [1] and in assay [2] was less than 5.46 nM each time.

For the molecule `CC[C@@H]1C[C@H](C)CC/C=C\[C@@H]2C[C@@]2(C(=O)NS(=O)(=O)C2CC2)NC(=O)[C@@H]2C[C@@H](Oc3nccc4cc(OC)ccc34)CN2C(=O)[C@H]1NC(=O)OC(C)(C)C` [Compound 4005, tert-butyl (2R,6S,7R,9R,13aS,14aR,16aS,Z)-14a-(cyclopropylsulfonylcarbamoyl)-7-ethyl-2-(6-methoxyisoquinolin-1-yloxy)-9-methyl-5,16-dioxo-1,2,3,5,6,7,8,9,10,11,13a,14,14a,15,16,16a-hexadecahydrocyclopropa[e]pyrrolo[1,2-a][1,4]diazacyclopentadecin-6-ylcarbamate], the EC50 in assay [1] and in assay [2] was less than 5.46 nM throughout.

Take `CC[C@@H]1C[C@H](C)CC/C=C\[C@@H]2C[C@@]2(C(=O)NS(=O)(=O)C2CC2)NC(=O)[C@@H]2C[C@@H](Oc3nccc4cc(OC)ccc34)CN2C(=O)[C@H]1NC(=O)OC(C)(C)C(F)(F)F` [Compound 4006, 1,1,1-trifluoro-2-methylpropan-2-yl (2R,6S,7R,9R,13aS,14aR,16aS,Z)-14a-(cyclopropylsulfonylcarbamoyl)-7-ethyl-2-(6-methoxyisoquinolin-1-yloxy)-9-methyl-5,16-dioxo-1,2,3,5,6,7,8,9,10,11,13a,14,14a,15,16,16a-hexadecahydrocyclopropa[e]pyrrolo[1,2-a][1,4]diazacyclopentadecin-6-ylcarbamate]: the 50% effective concentration (EC50) in assay [1] and in assay [2] was less than 5.46 nM in each case.

Take `C=C1C=Cc2c(O[C@@H]3C[C@H]4C(=O)N[C@]5(C(=O)NS(=O)(=O)C6CC6)C[C@H]5/C=C\CC[C@@H](C)C[C@@H](CC)[C@H](NC(=O)OC(C)(C)C)C(=O)N4C3)ncc(OC)c2C1` [Compound 4007]: the EC50 in assay [1] and in assay [2] was less than 5.46 nM each time.

With `COc1ccc2c(O[C@@H]3C[C@H]4C(=O)N[C@]5(C(=O)NS(=O)(=O)C6(C)CC6)C[C@H]5/C=C\CC[C@@H](C)C[C@@H](C)[C@H](NC(=O)OC(C)(C)C(F)(F)F)C(=O)N4C3)ncc(N3CCN(C)CC3)c2c1` [Compound 4013], the EC50 in assay [1] (GETYPE1A) and in assay [2] (GETYPE1B) was less than 5.46 nM in each case.

In the case of `COc1ccc2c(O[C@@H]3C[C@H]4C(=O)N[C@]5(C(=O)NS(=O)(=O)C6(F)CC6)C[C@H]5/C=C\CC[C@@H](C)C[C@@H](C)[C@H](NC(=O)C(C)(C)C)C(=O)N4C3)nccc2c1` [Compound 4015], the EC50 in assay [1] and in assay [2] was less than 5.46 nM each time.

For `COc1ccc2c(O[C@@H]3C[C@H]4C(=O)N[C@]5(C(=O)NS(=O)(=O)C6(F)CC6)C[C@H]5/C=C\CC[C@@H](C)C[C@@H](C)[C@H](NC(=O)OC(C)C)C(=O)N4C3)nccc2c1` [Compound 4016], the concentration giving a half-maximal response (EC50) in assay [1] and in assay [2] was less than 5.46 nM throughout.

For `CC(C)Oc1cnc(O[C@@H]2C[C@H]3C(=O)N[C@]4(C(=O)NS(=O)(=O)C5CC5)C[C@H]4/C=C\CC[C@@H](C)C[C@@H](C)[C@H](NC(=O)OC(C)(C)C(F)(F)F)C(=O)N3C2)c2cccc(Cl)c12` [Compound 4017], the EC50 in assay [1] and in assay [2] was less than 5.46 nM throughout.

As to `COc1ccc2c(O[C@@H]3C[C@H]4C(=O)N[C@]5(C(=O)NS(=O)(=O)C6(F)CC6)C[C@H]5/C=C\CC[C@@H](C)C[C@@H](C)[C@H](NC(=O)OCC(C)C)C(=O)N4C3)nccc2c1` [Compound 4018], the EC50 in assay [1] and in assay [2] was less than 5.46 nM in each case.

On to `COc1ccc2c(O[C@@H]3C[C@H]4C(=O)N[C@]5(C(=O)NS(=O)(=O)C6(F)CC6)C[C@H]5/C=C\CC[C@@H](C)C[C@@H](C)[C@H](NC(=O)OC5CCCC5)C(=O)N4C3)nccc2c1` [Compound 4019], for which the EC50 in assay [1] and in assay [2] was less than 5.46 nM throughout.

Take `COc1ccc2c(O[C@@H]3C[C@H]4C(=O)N[C@]5(C(=O)NS(=O)(=O)C6(F)CC6)C[C@H]5/C=C\CC[C@@H](C)C[C@@H](C)[C@H](NC(=O)O[C@H](C)C(F)(F)F)C(=O)N4C3)nccc2c1` [Compound 4020]: the EC50 in assay [1] and in assay [2] was less than 5.46 nM each time.

On to `COc1ccc2c(O[C@@H]3C[C@H]4C(=O)N[C@]5(C(=O)NS(=O)(=O)C6(F)CC6)C[C@H]5/C=C\CC[C@@H](C)C[C@@H](C)[C@H](NC(=O)OCC(C)(C)C)C(=O)N4C3)nccc2c1` [Compound 4022], for which the EC50 in assay [1] and in assay [2] was less than 5.46 nM in each case.

For `COc1cc2ccnc(O[C@@H]3C[C@H]4C(=O)N[C@]5(C(=O)NS(=O)(=O)C6(F)CC6)C[C@H]5/C=C\CC[C@@H](C)C[C@@H](C)[C@H](NC(=O)OC(C)(C)C)C(=O)N4C3)c2cc1Cl` [Compound 4024, tert-butyl (2R,6S,7R,9R,13aS,14aR,16aS,Z)-2-(7-chloro-6-methoxyisoquinolin-1-yloxy)-14a-(1-fluorocyclopropylsulfonylcarbamoyl)-7,9-dimethyl-5,16-dioxo-1,2,3,5,6,7,8,9,10,11,13a,14,14a,15,16,16a-hexadecahydrocyclopropa[e]pyrrolo[1,2-a][1,4]diazacyclopentadecin-6-ylcarbamate], the concentration giving a half-maximal response (EC50) in assay [1] and in assay [2] was less than 5.46 nM throughout.

As for `CCOc1cnc(O[C@@H]2C[C@H]3C(=O)N[C@]4(C(=O)NS(=O)(=O)C5CC5)C[C@H]4/C=C\CC[C@@H](C)C[C@@H](C)[C@H](NC(=O)OC(C)(C)C(F)(F)F)C(=O)N3C2)c2cccc(Cl)c12` [Compound 4025], the half-maximal effective concentration (EC50) in assay [1] and in assay [2] was less than 5.46 nM in each case.

Consider `COc1ccc2c(O[C@@H]3C[C@H]4C(=O)N[C@]5(C(=O)NS(=O)(=O)C6CC6)C[C@H]5/C=C\CC[C@@H](C)C[C@@H](C)[C@H](NC(=O)OC(C)(C)C)C(=O)N4C3)nc(-c3ccc(OC(C)C)cc3)cc2c1` [Compound 4026, tert-butyl (2R,6S,7R,9R,13aS,14aR,16aS,Z)-14a-(cyclopropylsulfonylcarbamoyl)-2-(3-(4-isopropoxyphenyl)-6-methoxyisoquinolin-1-yloxy)-7,9-dimethyl-5,16-dioxo-1,2,3,5,6,7,8,9,10,11,13a,14,14a,15,16,16a-hexadecahydrocyclopropa[e]pyrrolo[1,2-a][1,4]diazacyclopentadecin-6-ylcarbamate], for which the EC50 in assay [1] and in assay [2] was less than 5.46 nM each time.

For the molecule `COc1ccc2c(O[C@@H]3C[C@H]4C(=O)N[C@]5(C(=O)NS(=O)(=O)C6CC6)C[C@H]5/C=C\CC[C@@H](C)C[C@@H](C)[C@H](NC(=O)OC(C)(C)C(F)(F)F)C(=O)N4C3)nc(-c3ccc(OC(C)C)cc3)cc2c1` [Compound 4027], the EC50 in assay [1] (GETYPE1A) and in assay [2] (GETYPE1B) was less than 5.46 nM in each case.

In the case of `COc1ccc2c(O[C@@H]3C[C@H]4C(=O)N[C@]5(C(=O)NS(=O)(=O)C6(F)CC6)C[C@H]5/C=C\CC[C@@H](C)C[C@@H](C)[C@H](NC(=O)OC(C)(C)C(F)(F)F)C(=O)N4C3)ncc(Cl)c2c1` [Compound 4028], the EC50 in assay [1] (GETYPE1A) and in assay [2] (GETYPE1B) was less than 5.46 nM each time.

Source of the values: patent US9499550B2 (BRISTOL-MYERS SQUIBB COMPANY, priority 2012, dated 2016).
